Measured values reported in patent publication US12005049B2, “Methods of preventing cancer metastasis” (MediciNova, Inc., priority 2021, dated 2024).

What was measured:
Omm1.3 cells [1] = assay: Transwell migration assay; type: cell-based; conditions: HCM+UM-exo as chemoattractant, 24 hrs, 25 μM ibudilast, 10 μM diacerein, 1.0 μM reparixin, 0.25 μM crizotinib
Procedure: FIG. 1A depicts trans-well migration assay results in which Omm1.3 cells were stimulated with hepatocyte conditioned media and uveal melanoma exosomes (HCM+UM-exo) in the presence of vehicle (DMSO), 10 μM diacerein, 1.0 μM reparixin, 0.25 μM crizotinib or 25 μM ibudilast.
FIG. 1B depicts migrated cell count under the microscope from the trans-well migration assay, three fields for each condition. Experiments were repeated three times ±sd, p<0.001.
Exosome isolation. Exosomes were isolated from UM cell lines kept in serum-free media for 24 hrs. The media was collected and subjected to serial centrifugation steps starting with a spin at 3,000×g to remove dead cells and cell debris. The supernatant from this step is spun at 20,000×g to pellet microvesicles and large EVs. Lastly, the supernatant from this step is centrifuged at 100,000×g to pellet the exosome fraction.
Transwell migration assay. The in vitro migration assays were performed with 5×104 Omm1.3 cells seeded in 500 μL serum-free medium on BioCoat Matrigel Invasion Chambers (BD Biosciences). The conditioned media of the hepatocytes treated or untreated with UM-exosome was used as chemoattractant in the lower chamber. The cells were also treated with vehicle (DMSO), 0.25 μM crizotinib or 25 μM ibudilast for 24 hrs. […] Images of stained cells were taken through a microscope and quantified by counting cells in triplicate samples.

Omm1.3 cells [2] = assay: Wound healing (scratch) assay, Omm1.3; type: cell-based; conditions: exposed to HCM+UM-exo, 25 μM ibudilast, 48 hours
Procedure: FIG. 1C depicts Omm1.3 cells in scratch assays, in which after the scratch, the cells were incubated with control HCM or with HCM of hepatocytes exposed to UM-exosomes with or without 25 μM ibudilast. Pictures were taken at zero time-point or after 48 hours under a microscope at 10× magnification. Wound healing assay. Omm1.3 and MP41 cells were scratched with a sterile 200 μL pipette tip. Cells were washed in PBS and replaced with fresh RPMI 1640 complete media, or hepatocyte conditioned media (HCM) pretreated with UM-exo. Images of the wounded area were recorded using an inverted phase-contrast microscope at the indicated time points.

MP41 cells = assay: Wound healing (scratch) assay, MP41; type: cell-based; conditions: exposed to HCM+UM-exo; data not shown
Procedure: Wound healing assay. Omm1.3 and MP41 cells were scratched with a sterile 200 μL pipette tip. Cells were washed in PBS and replaced with fresh RPMI 1640 complete media, or hepatocyte conditioned media (HCM) pretreated with UM-exo. Images of the wounded area were recorded using an inverted phase-contrast microscope at the indicated time points.

GFP-Luc-Omm1.3 cells = assay: Metastatic uveal melanoma (UM) mouse model; type: in vivo; conditions: UM-exosome-educated mice, 7.5 mg/kg ibudilast i.p. daily
Procedure: FIG. 2A depicts quantification of bioluminescence intensity for each mouse in the abdominal region, while excluding bioluminescence in the eyes, in an evaluation of ibudilast in a metastatic UM mouse model. […] FIG. 2B depicts representative images of H&E-stained mouse liver sections from the metastatic UM mouse model. Mice were injected intravenously with vehicle (PBS) or 10 μg UM-exosome isolated from […] in 100 μL PBS for 7 days. Subsequently, GFP-Luc-Omm1.3 cells were retro-orbitally injected in the mice as described in Surriga et al. (Mol. Cancer Ther., 2013, 12:2817-26). Ibudilast was dissolved to a concentration of 1 mg/ml in physiological saline containing 10% v/v of polyoxyethylene hydrogenated castor oil 60 (HCO60). A week later, the mice were treated daily with vehicle or 7.5 mg/kg ibudilast i.p. and monitored for the development of metastasis. […] The mice were monitored weekly for luminescence with luciferin (Gold Biotechnology). After 7 weeks the livers and lungs were collected and analyzed for luminescence. Experiments were carried out under an Institutional Animal Care and Use Committee—approved (IACUC) protocol, and Institutional guidelines for the proper and humane use of animals were followed. Statistical significance was determined by 2-sample Student t-test.

MIF = assay: Plasma level of MIF; conditions: found by the inventors; no method given
[3] = Sanftner et al Xenobiotica 2009; cited from earlier work

## CC(C)C(=O)c1c(C(C)C)nn2ccccc12 [ibudilast, 2-methyl-1-(2-(1-methylethyl)pyrazolo(1,5-a)pyridin-3-yl)1-propanone]
Omm1.3 cells [1]
  UM cell migration toward UM-exosome-stimulated hepatocyte conditioned media (HCM): dramatically inhibited cell migration
Omm1.3 cells [2]
  wound healing ability of UM cell line Omm1.3: suppressed the wound healing ability
MP41 cells
  wound healing ability of UM cell line MP41: suppressed the wound healing ability
GFP-Luc-Omm1.3 cells
  metastatic spread (bioluminescence signal intensity in the abdominal region): showed inhibition of metastatic spread
  presence of cancer cell clusters in liver sections (H&E staining): not in the livers
GFP-Luc-Omm1.3 cells; after 7 weeks
  bioluminescence in lungs and livers at necropsy: no bioluminescence signal in organs
MIF
  plasma level of MIF: lowers plasma level of MIF
[3]
  CNS penetration: good. CNS penetration
